Data on six molecules can be found in patent US5455228A, “Peptidase resistant thrombin receptor peptide ligand” (The Research Foundation of State University of New York, priority 1993, dated 1995).

pEC50: −log10 of the molar value. Numbered stars: 1 amine (or outer) side, 2 acyl side, 3 side chain; on linkers, the order of the positions; unused ones are H or OH. Square brackets hold non-standard residues; d marks the D form. Ends that are not written are not given here. Peptide text beside a SMILES is read from it. ξ: configuration not given here. ξIsoserine = O=C(C(O)CN[*:1])[*:2]

In series [1] the target is T1, plasma aminopeptidase M (Homo sapiens, UniProt P15144).
T1 construct: from tissue; host or cells: human citrated platelet-poor plasma
T1 sequence (P15144 whole entry): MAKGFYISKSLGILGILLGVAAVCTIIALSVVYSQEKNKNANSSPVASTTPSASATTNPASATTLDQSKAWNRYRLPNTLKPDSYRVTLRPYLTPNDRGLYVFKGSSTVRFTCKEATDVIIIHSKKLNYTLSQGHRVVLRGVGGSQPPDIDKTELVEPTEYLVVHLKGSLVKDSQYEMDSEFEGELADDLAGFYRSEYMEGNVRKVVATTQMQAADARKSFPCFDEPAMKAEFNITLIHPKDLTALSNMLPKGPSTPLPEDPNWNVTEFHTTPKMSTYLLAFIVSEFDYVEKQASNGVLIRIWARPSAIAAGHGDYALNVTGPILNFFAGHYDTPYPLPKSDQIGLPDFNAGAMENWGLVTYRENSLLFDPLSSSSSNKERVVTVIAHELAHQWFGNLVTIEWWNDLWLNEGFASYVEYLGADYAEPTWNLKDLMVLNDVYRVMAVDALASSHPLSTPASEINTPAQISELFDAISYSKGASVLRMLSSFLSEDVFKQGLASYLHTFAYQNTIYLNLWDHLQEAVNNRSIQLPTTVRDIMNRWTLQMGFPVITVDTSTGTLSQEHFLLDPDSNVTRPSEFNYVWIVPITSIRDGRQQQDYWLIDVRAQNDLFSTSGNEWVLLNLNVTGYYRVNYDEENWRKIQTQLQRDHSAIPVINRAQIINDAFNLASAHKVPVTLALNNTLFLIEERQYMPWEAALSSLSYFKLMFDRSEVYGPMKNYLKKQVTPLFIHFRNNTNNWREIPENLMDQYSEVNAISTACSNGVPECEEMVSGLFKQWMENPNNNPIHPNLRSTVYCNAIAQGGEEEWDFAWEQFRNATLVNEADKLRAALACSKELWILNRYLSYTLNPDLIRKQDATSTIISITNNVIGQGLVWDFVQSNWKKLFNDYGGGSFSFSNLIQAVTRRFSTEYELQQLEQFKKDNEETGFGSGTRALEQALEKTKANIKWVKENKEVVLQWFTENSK
The experiment in a line: Loss of peptide platelet aggregating activity during plasma incubation. The format is in vitro ADME. The conditions noted are these: for platelet aggregating activity when incubated in plasma: 2 mM peptide mixed 1:1 with platelet-poor plasma, up to 2 hours; for aggregating activity after plasma incubation: 125 μM peptide. As to the method:
(§1) Platelet Aggregation. Platelet Rich Plasma (hereinafter "PRP") was obtained from human blood anticoagulated with sodium citrate (0.01 volume of 40% trisodium citrate) or acid-citrate-dextrose (hereinafter "ACD") solution A (ACD-A; 8.5 mL of blood: 1.5 mL of ACD-A) by centrifugation at 700 g for 3.5 min. at 22° C. Platelet-poor plasma (hereinafter "PPP") was obtained by centrifuging the PRP at 2000g for 8 min. at 22° C. The pH of the citrated PRP after preparation was about 7.7 whereas the pH of the ACD-A PRP was about 7.0. The pH of the PRP was adjusted, when necessary with 1M NaOH or 1M HCl and maintained at about 7.70. Platelet aggregation was performed in a dual-channel aggregometer (Chronolog, Hayertown, Pa.) using matched stir bars.
[…] Aliquots were removed at 15, 30, 45, 60 and 120 minutes and analyzed for both the ability to aggregate platelets and peptide cleavage.

For series [2], the target named is T1, plasma aminopeptidase M. Put plainly: Peptide digestion during incubation with platelet-poor plasma, HPLC. It is filed as in vitro ADME. As to the method: (§2) Peptide Digestion Studies. For T-11 amino acids 1 to 11 of SEQ ID NO:1 and (D-Ser)T-11 SEQ ID NO:11 digestions, 0.11 volume of 20 mM peptide in 0.15M NaCl, 0.01 Tris/HCl, pH 7.4, was added to citrated platelet-poor plasma to achieve a final concentration of 2 mM. Samples were incubated for 2 hours at 37° C. and then the plasma proteins were precipitated with 9-10% trichloroacetic acid at 4° C. for at least 30 min. After centrifugation at 12000 g at 22° C. for 3 min., the supernatant was analyzed to determine peptide cleavage by reverse-phase HPLC (C8; Applied Biosystems 300 RP Aquapore; 220×4.6-mm column); elution was with 0.1% trifluoroacetic acid with a 0-60% acetonitrile gradient.
(§3) To determine the amino acid sequence of the digestion products of T-11 amino acids 1 to 11 of SEQ ID NO:1 and (D-Ser)T-11 SEQ ID NO:11 and to assess their ability to aggregate platelets, the peptide (2 mM) was incubated with citrated PPP for 2 hours at 37° C., plasma proteins were precipitated with trichloroacetic acid, and the supernatant after centrifugation was both analyzed and fractionated on the analytical reverse-phase column. Peak fractions were dried in a vacuum centrifuge (Speed-Vac, Savant, Farmingdale, N.Y.) and dissolved in either buffer (0.15M NaCl and 0.01 M Tris/HCl, pH 7.4) for aggregation studies or 0.1% trifluoroacetic acid for amino acid analysis. Quantitative amino acid analysis of the peptides was performed with commercial reagents and equipment (Pico-Tag workstation and C-18 Pico-Tag column; Waters-Millipore, Bedford, Mass.). The amino acid sequence could then be inferred from the amino acid content of each peak.
(§4) For the Ser-Phe-Leu-Leu-Arg-Asn (SFLLRN) amino acids 1 to 6 of SEQ ID NO:1 and (iso-Ser)-Phe-Leu-Leu-Arg-Asn ((iso-S))FLLRN SEQ ID NO:7 studies, 2 mM peptide in buffer (0.15 M NaCl, 0.01 M Tris/HCl, pH 7.4) was mixed with an equal volume of citrated platelet-poor plasma (1:1) and separately with an equal volume of buffer and incubated at 37° C for variable periods of time. Aliquots were removed at 15, 30, 45, 60 and 120 minutes and analyzed for both the ability to aggregate platelets and peptide cleavage.
(§5) For peptide digestion studies for SFLLRN amino acids 1 to 6 of SEQ ID NO:1 and (iso-S)FLLRN SEQ ID NO:7, samples were removed at various times and analyzed for peptide digestion by HPLC after precipitating the plasma proteins with trichloroacetic acid.

Series [3] concerns T2, plasma aminopeptidase M.
T2 construct: from tissue; host or cells: human citrated platelet-poor plasma
Described as above. The conditions noted are these: human; for remaining at 2 h, 1 mM: 120 min; for metabolised at 2 h, 1 mM: incubated with plasma at 37° C., about two hours, read-out: peptide cleavage. The format is in vitro ADME, human. As to the method:
as §2, §3, §4, §5

The target in series [4] is T1, plasma aminopeptidase M. The conditions noted are these: previously demonstrated, Coller et al. 1992; cited from earlier work.
The next series relates to gel-filtered platelets. The conditions noted are these: Vu et al. 1991; cited from earlier work.
In series [5] the target is T3, thrombin receptor on platelets (Homo sapiens, UniProt P25116).
T3 construct: Citrated platelet-rich plasma (PRP; 307,000 platelets/μl, pH 7.0; 0.45 ml) was stirred in a cuvette at 37° C; endogenous in cells; host or cells: human platelets in citrated platelet-rich plasma
T3 sequence (P25116 22-425): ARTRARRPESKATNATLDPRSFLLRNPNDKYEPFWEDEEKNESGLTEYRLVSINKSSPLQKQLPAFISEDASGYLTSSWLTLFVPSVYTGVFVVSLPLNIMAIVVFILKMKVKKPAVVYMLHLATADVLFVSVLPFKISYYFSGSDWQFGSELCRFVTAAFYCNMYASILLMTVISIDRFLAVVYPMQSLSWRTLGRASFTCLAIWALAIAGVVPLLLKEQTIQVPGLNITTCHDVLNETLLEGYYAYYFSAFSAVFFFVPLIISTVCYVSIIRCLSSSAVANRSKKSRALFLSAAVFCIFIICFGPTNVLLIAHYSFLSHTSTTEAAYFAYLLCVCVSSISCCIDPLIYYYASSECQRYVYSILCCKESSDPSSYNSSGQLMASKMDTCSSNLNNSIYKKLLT
Put plainly: Dose response of peptide-induced platelet aggregation in platelet-rich plasma. The format is cell-based. As to the method:
as §1
Dose Response of Peptide-Induced Aggregation. Citrated platelet-rich plasma (PRP; 307,000 platelets/μl, pH 7.0; 0.45 ml) was stirred in a cuvette at 37° C. and then […] of Ser-Phe-Leu-Leu-Arg-Asn-Pro-Asn-Asp-Lys-Tyr (T-11) amino acids 1 to 11 of SEQ ID NO:1, (D-Ser)-Phe-Leu-Leu-Arg-Asn-Pro-Asn-Asp-Lys-Tyr ((DS)T-11) SEQ ID NO:11, Ser-Phe-Leu-Leu-Arg-Asn amino acids 1 to 6 of SEQ ID NO:1 or (iso-Ser)-Phe-Leu-Leu-Arg-Asn SEQ ID NO:7 peptide was added to achieve the final concentration as follows: Ser-Phe-Leu-Leu-Arg-Asn-Pro-Asn-Asp-Lys-Tyr amino acids 1 to 11 of SEQ ID NO:1 was added to a maximum concentration of 2.9 μM; (D-Ser)-Phe-Leu-Leu-Arg-Asn-Pro-Asn-Asp-Lys-Tyr SEQ IS NO:11 was added to a maximum concentration of 940 μM; Ser-Phe-Leu-Leu-Arg-Asn amino acids 1 to 6 of SEQ ID NO:1 was added to a maximum concentration of 1.7 μM; (iso-Ser)-Phe-Leu-Leu-Arg-Asn SEQ ID NO:7 was added up to a maximum concentration of 4.9 μM.

The next series concerns the target aminopeptidase M (Homo sapiens, UniProt P15144). Particulars: Coller et al. 1992; not with thrombin; cited from earlier work.
Setting [6] is: 1 mM final, 50% platelet-poor plasma, 37° C., 2 hours.
The mark [7] stands for this setting: 50% citrated platelet-poor plasma, 1 mM final, 50% platelet-poor plasma, 37° C., read-out: percentage remaining intact.

aminopeptidase M, sequence (P15144 whole entry, species assumed): as the sequence (P15144 whole entry) above

The term fraction remaining denotes what is left of the initial amount, in per cent. As to `CC(C)C[C@H](NC(=O)[C@H](CC(C)C)NC(=O)[C@H](Cc1ccccc1)NC(=O)[C@@H](N)CO)C(=O)N[C@@H](CCCN=C(N)N)C(=O)N[C@@H](CC(N)=O)C(N)=O` [SFLLRN], the “time to loss of all aggregating activity” value on plasma aminopeptidase M [1] (125 μM peptide incubated with plasma) is recorded as no more than 18 min. Further, the “platelet aggregating activity when incubated in plasma” value on plasma aminopeptidase M [1] (37° C.) is given as “rapidly lost platelet aggregating activity”. At plasma aminopeptidase M [1] (incubated with plasma at 37° C.), the “time to decrease of platelet aggregating activity” value was no more than 15 min. Besides, the “platelet aggregating activity after plasma incubation” value on plasma aminopeptidase M [1] (plasma at 37° C., 60 minutes) is given as “nearly lost”. The “time to detectable cleavage” value on plasma aminopeptidase M [2] (1 mM final, 50% platelet-poor plasma, 37° C.) is listed as no more than 10 min. Moreover, the “extent of digestion (in words)” value at plasma aminopeptidase M [2] (setting [6]) was “nearly complete digestion”. Further, the metabolised at 0.25 h, 1 mM in the series on plasma aminopeptidase M [3] (50% citrated platelet-poor plasma, 1 mM final, 50% platelet-poor plasma, 37° C., 15 min, read-out: peptide no longer intact) came to 35%. In addition, the share remaining at 0.5 h, 1 mM in the series on plasma aminopeptidase M [3] (50% citrated platelet-poor plasma, 1 mM final, 50% platelet-poor plasma, 37° C., 30 min, read-out: percentage remaining intact) worked out at 49%. Moreover, the fraction remaining at 0.75 h, 1 mM with plasma aminopeptidase M [3] (50% citrated platelet-poor plasma, 1 mM final, 50% platelet-poor plasma, 37° C., 45 min, read-out: percentage remaining intact) was 23%. For the same molecule, the share remaining at 1 h, 1 mM in the series with plasma aminopeptidase M [3] (50% citrated platelet-poor plasma, 1 mM final, 50% platelet-poor plasma, 37° C., 60 min, read-out: percentage remaining intact) was 16%. For the same molecule, in the series with plasma aminopeptidase M [3] (setting [7]), the share remaining at 2 h, 1 mM was 4%. In the series with plasma aminopeptidase M [3] (citrated platelet-poor plasma), the metabolised at 2 h, 1 mM was found to be 96%.

Consider “SFLLRNPNDKYEPF [T-14, 14 amino acid peptide mimicking the new amino terminus of the cleaved thrombin receptor]”, for which the “aggregating activity when incubated in plasma” value with plasma aminopeptidase M [4] is listed as “lost aggregating activity”. Further, the “aggregation of gel-filtered platelets” value in the series on gel-filtered platelets was “able to aggregate gel-filtered platelets directly”.

In the case of `CC(C)C[C@H](NC(=O)[C@H](Cc1ccccc1)NC(=O)[C@H](N)CO)C(=O)N[C@@H](CC(C)C)C(=O)N[C@@H](CCCNC(=N)N)C(=O)N[C@@H](CC(N)=O)C(=O)N1CCC[C@H]1C(=O)N[C@@H](CC(N)=O)C(=O)N[C@@H](CC(=O)O)C(=O)N[C@@H](CCCCN)C(=O)N[C@@H](Cc1ccc(O)cc1)C(N)=O` [(DS)T-11, (D-Ser)-Phe-Leu-Leu-Arg-Asn-Pro-Asn-Asp-Lys-Tyr] (H-[dS]FLLRNPNDKY-NH2), the “aggregating activity retained after plasma incubation” value on plasma aminopeptidase M [1] (incubated with plasma for 1 hour) is on record as “retained more than half its aggregating activity”. The “peptide cleavage (in words)” value at plasma aminopeptidase M [2] (2 mM peptide, platelet-poor plasma, 37° C., 2 hours) was “did not undergo any identifiable cleavage”.

Turning to `CC(C)C[C@H](NC(=O)[C@H](Cc1ccccc1)NC(=O)C(O)CN)C(=O)N[C@@H](CC(C)C)C(=O)N[C@@H](CCCNC(=N)N)C(=O)N[C@@H](CC(N)=O)C(N)=O` (stereo partly drawn) [(iso-S)FLLRN, (iso-Ser)-Phe-Leu-Leu-Arg-Asn-NH2] (ξIsoserine-FLLRN-NH2), in series [5] (citrated PRP), the “platelet activating activity relative to SFLLRN” value is 15-20%. For the same molecule, the “platelet aggregating activity (in words)” value in series [5] (citrated PRP) was “substantially active”. For the same molecule, the pEC50 in series [5] (citrated PRP, 37° C., read-out: concentration to achieve half-maximal aggregation) is roughly 5.40. In series [5] (peptide at 3.7 μM, dose giving equivalent peak aggregation response), the “slope of platelet disaggregation phase” value was 4 U/min. Besides, the “aggregating activity after plasma incubation” value on plasma aminopeptidase M [1] (45 min) is “retained its full aggregating activity”; at plasma aminopeptidase M [1] (1 hour), “some decrease in activity”; on plasma aminopeptidase M [1] (2 hours), “some aggregating activity remained”. Besides, the “platelet aggregating activity when incubated in plasma” value on plasma aminopeptidase M [1] (37° C.) was “lost little if any activity”. The “peptide activity after incubation with buffer rather than plasma” value at plasma aminopeptidase M [1] (buffer, 37° C., 2 hours) is “no decrease in peptide activity”. Also, the “platelet aggregating activity after plasma incubation” value at plasma aminopeptidase M [1] (plasma at 37° C., at least two hours) is on record as “remained unchanged”. Besides, on plasma aminopeptidase M [2] (setting [6]), the “extent of digestion (in words)” value was “minimal digestion”. Further, on plasma aminopeptidase M [2] (1 mM final, 50% platelet-poor plasma, 37° C., first 60 min), the “peptide remaining intact (in words)” value was “Virtually all”. For the same molecule, the “peptide cleavage (in words)” value on plasma aminopeptidase M [2] (incubated with plasma at 37° C., 45 minutes) is “did not undergo identifiable cleavage”. Moreover, the fraction remaining at 2 h, 1 mM in the series with plasma aminopeptidase M [3] (setting [7]) is roughly 83%. Moreover, the metabolised at 2 h, 1 mM in the series on plasma aminopeptidase M [3] (citrated platelet-poor plasma) was roughly 17%.

With “SFLLRNPNDKY-NH2 [T-11, Ser-Phe-Leu-Leu-Arg-Asn-Pro-Asn-Asp-Lys-Tyr]”, the “time to loss of all aggregating activity” value at plasma aminopeptidase M [1] (incubated with plasma) was no more than 60 min. At plasma aminopeptidase M [1] (plasma at 37° C.), the “platelet aggregating ability after preincubation in plasma” value was “progressive loss of platelet aggregating ability”. Besides, the “incubation time sufficient to produce significant inhibition of aggregating ability” value at plasma aminopeptidase M [1] (preincubation in plasma at 37° C.) is reported as no more than 10 min. Also, on plasma aminopeptidase M [4], the “aggregating activity when incubated in plasma” value was “lost aggregating activity”. Moreover, the fraction remaining at 2 h, 2 mM in the series on plasma aminopeptidase M [3] (citrated platelet-poor plasma, 2 mM peptide, platelet-poor plasma, 37° C., 2 hours, read-out: peptide remaining intact) came to 34%.

As to `CC(C)C[C@@H](N)[C@H](O)C(=O)N[C@H](C(=O)N[C@H](C(=O)N[C@@H](CC(=O)O)C(=O)O)C(C)C)C(C)C` [amastatin], at aminopeptidase M, the “effect on aggregation induced by T-11” value is “enhanced aggregation induced by T-11”.
